{"source": "patent US20250263404A1", "about": "“AMINOPYRIDINES AS ACTIVATORS OF PI3 KINASE” (UCL Business Ltd, priority 2021, published 2025)", "key": {"LCK": {"target": "LCK (Homo sapiens, UniProt P06239)", "sequence (P06239 whole entry)": "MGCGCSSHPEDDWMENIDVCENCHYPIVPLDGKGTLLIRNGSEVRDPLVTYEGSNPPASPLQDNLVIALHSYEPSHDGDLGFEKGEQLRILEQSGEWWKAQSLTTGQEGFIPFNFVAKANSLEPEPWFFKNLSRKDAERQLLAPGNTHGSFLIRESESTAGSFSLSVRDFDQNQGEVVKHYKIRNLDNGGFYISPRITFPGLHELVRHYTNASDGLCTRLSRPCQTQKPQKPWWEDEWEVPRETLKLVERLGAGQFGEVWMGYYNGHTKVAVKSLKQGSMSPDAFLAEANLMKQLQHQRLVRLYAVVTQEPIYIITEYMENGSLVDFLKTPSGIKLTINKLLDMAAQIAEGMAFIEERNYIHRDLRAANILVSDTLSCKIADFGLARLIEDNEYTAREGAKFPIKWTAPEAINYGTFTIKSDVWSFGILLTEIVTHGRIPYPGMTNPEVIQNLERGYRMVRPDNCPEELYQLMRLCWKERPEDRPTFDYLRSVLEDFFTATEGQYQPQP", "assay": "SelectScreen kinase profiling, LCK", "assay_type": "biochemical", "details": "1 μM of 1938, 50 μM ATP", "procedure": "133 protein kinases and 7 lipid kinases were counterscreened, with […] used at 1 μM, using the Adapta, Lantha and Z-LYTE assays (SelectScreen Kinase Profiling Service; Thermofisher—experimental details of these assays can be found here: https://www.thermofisher.com/uk/en/home/industrial/pharma-biopharma/drug-discovery-development/target-and-lead-identification-and-validation/kinasebiology/kinase-activity-assays.html. The tree representation in KinMap generated courtesy of Cell Signaling Technology, Inc. (www.cellsignal.com). mTORC1 (mTOR/RAPTOR/LST8) protein complex and ATM kinase and substrates were produced as previously described (Anandapadamanaban, M. et al. Science (New York, NY 366, 203-210 (2019); Baretic, D. et al. Sci Adv 3, e1700933 (2017). Screening of 1938 was conducted using SuperSep Phos-Tag 50 μmol/l 100×100×6.6 mm 17-well (192-18001/199-18011) gels. For ATM assays, 100 nM ATM was incubated for 30 min at 30° C. with 5 μM GST-p53 and 1 mM ATP, in the absence or presence of 200 μM 1938 in ATM Kinase Buffer (50 mM HEPES pH 7.5, 100 mM NaCl, 10% glycerol, 2 mM […], 5 mM MgCl2). […] Gels were then stained using InstantBlue™ Coomassie stain, and then quantified using BioRad Image Lab Software. […]"}, "p110α/p85α": {"target": "T1, p110α/p85α (Homo sapiens, UniProt P42336)", "T1 construct": "Full-length p110α was expressed in a complex with full-length p85α (for biochemistry and HDX-MS); 6xHis followed by TEV protease site (N); made in house; host or cells: Spodoptera frugiperda Sf9 (baculovirus co-infection; plasmids OP831 and OP809)", "T1 sequence (P42336 whole entry)": "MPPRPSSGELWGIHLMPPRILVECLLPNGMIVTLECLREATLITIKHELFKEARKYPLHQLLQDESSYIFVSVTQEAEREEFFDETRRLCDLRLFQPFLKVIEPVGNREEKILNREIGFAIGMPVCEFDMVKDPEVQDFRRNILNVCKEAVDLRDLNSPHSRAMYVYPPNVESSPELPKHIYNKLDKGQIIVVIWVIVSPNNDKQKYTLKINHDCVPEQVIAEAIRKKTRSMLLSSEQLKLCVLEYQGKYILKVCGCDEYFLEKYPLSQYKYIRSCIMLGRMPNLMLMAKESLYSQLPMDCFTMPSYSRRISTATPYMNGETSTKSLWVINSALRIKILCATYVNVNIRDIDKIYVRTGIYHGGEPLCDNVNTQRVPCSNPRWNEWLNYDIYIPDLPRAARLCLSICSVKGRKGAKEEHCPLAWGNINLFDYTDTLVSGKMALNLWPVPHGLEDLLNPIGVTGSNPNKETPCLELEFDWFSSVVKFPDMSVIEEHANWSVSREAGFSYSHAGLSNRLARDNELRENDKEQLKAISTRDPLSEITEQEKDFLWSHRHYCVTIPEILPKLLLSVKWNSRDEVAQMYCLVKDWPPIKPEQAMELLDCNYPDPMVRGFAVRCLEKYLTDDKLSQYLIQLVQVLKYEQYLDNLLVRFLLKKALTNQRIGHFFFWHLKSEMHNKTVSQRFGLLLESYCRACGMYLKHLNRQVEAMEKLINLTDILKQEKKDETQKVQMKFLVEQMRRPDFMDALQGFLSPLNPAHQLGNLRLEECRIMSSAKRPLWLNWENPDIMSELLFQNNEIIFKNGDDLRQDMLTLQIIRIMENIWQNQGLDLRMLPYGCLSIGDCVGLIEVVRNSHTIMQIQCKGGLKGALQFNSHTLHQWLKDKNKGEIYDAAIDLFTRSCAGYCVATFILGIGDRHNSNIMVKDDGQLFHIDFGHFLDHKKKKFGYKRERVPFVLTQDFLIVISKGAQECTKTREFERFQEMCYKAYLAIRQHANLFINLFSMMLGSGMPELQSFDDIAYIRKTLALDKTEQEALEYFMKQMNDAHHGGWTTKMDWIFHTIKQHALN", "T1 sequence (P27986 whole entry partner)": "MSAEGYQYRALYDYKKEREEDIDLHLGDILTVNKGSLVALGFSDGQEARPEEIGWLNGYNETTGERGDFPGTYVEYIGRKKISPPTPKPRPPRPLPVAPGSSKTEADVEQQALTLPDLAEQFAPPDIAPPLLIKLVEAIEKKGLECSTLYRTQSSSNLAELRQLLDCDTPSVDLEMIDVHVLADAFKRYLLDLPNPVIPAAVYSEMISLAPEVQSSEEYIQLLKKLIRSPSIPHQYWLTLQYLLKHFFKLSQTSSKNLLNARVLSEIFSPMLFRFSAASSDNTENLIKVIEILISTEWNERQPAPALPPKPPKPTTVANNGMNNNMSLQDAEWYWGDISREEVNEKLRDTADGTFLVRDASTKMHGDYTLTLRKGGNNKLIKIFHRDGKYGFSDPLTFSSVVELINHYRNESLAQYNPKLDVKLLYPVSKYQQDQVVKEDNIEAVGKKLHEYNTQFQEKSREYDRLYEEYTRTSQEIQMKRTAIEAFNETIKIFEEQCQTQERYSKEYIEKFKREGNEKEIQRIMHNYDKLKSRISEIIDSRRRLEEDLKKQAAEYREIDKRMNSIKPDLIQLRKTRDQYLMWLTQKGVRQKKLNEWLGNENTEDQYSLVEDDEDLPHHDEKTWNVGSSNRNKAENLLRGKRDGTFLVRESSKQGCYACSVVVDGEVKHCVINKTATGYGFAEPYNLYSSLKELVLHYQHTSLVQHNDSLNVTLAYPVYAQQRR", "assay": "HDX-MS of full-length p110α/p85α", "details": "wild-type p110α/p85α", "excerpt": "The inventors used hydrogen-deuterium exchange mass spectrometry (HDX-MS) which allows the investigation of compound binding sites and conformational changes using soluble, native proteins, and which has been key to unravel the molecular mechanisms of physiological activation of class IA PI3Ks. Class IA PI3K activation occurs through de-inhibition of the auto-inhibited p85/p110 complex, via the release of inhibitory interactions between p85 and p110, upon binding of the complex to bis-phosphorylated motifs in membrane-resident receptors or cytosolic adaptors. […]\nIn total, three biological replicates, i.e., three separate protein preparations, each with exchange experiments were carried out in triplicate were conducted. […] A “blank” sample of protein dilution buffer with quench was run between samples, and carry-over of peptides was routinely monitored. […] Data was analysed using Protein Lynx Global Server (Waters) and DynamX (Waters). […] Data quality, experiment design, and reporting of data meets the criteria as determined by the HDX-MS community (Masson, G. R. et al. Nat Methods 16, 595-602 (2019)). […]"}, "PI3Kα-WT MEFs": {"test_system": "PI3Kα-WT MEFs", "assay": "Cell number by crystal violet staining in MEFs", "assay_type": "cell-based, mouse", "details": "72 h", "procedure": "MEFs were seeded at 5000 cells per well in 96-well plates in DMEM supplemented with 10% FBS and 1% P/S, and allowed to attach overnight. The next day, cells were serum-starved for 5 h prior to compound addition in fresh serum-free DMEM. After different time points, cells were rapidly washed with distilled H2O before fixed and stained in a solution of 0.5% crystal violet (Sigma-Aldrich cat #C0775) in 20% methanol (v:v) as described (Feoktistova, M. et al. Cold Spring Harb Protoc 2016, pdb prot087379 (2016). Briefly, after 20 min incubation at room temperature on a rocking platform, fixed and stained cells were washed 3 times with distilled H2O and plates air-dried overnight. 200 μl methanol was next added to each well and the plates were incubated at room temperature for 20 min on a bench rocker, followed by measurement of optical density at 570 with a plate reader."}}, "data": [{"compound": "CCN1CCN(c2ccc(Nc3cc(Nc4cccc5c4N(C(C)=O)CC5)ccn3)cc2)CC1", "note": "[Example 1938]", "values": [{"measurement": "inhibition of LCK", "setting": "LCK", "value": 58, "unit": "%"}, {"measurement": "Movement of the adapter-binding domain", "setting": "p110α/p85α", "value": "−/?"}, {"measurement": "cell number (crystal violet staining)", "setting": "PI3Kα-WT MEFs", "value": "an increase in cell number"}]}]}
